Measured values from ChEMBL document CHEMBL1142214, “Synergistic interaction between phenothiazines and antimicrobial agents against Burkholderia pseudomallei” (2007).
Converted amounts (≈) assume the structure as drawn. The source made the active and inactive calls. No cut-off for these calls is given here.

Assays:
[1] = test system: Burkholderia pseudomallei; assay: Antimicrobial activity against Burkholderia pseudomallei KHW in presence of 15.6 uM omeprazole; format: functional
[2] = test system: Burkholderia pseudomallei; assay: Antimicrobial activity against Burkholderia pseudomallei KHW in presence of 31.3 uM prochlorperazine; format: functional
[3] = test system: Burkholderia pseudomallei; assay: Antimicrobial activity against Burkholderia pseudomallei KHW in presence of 15.6 uM prochlorperazine; format: functional
[4] = test system: Burkholderia pseudomallei; assay: Antimicrobial activity against Burkholderia pseudomallei KHW in presence of 7.8 uM prochlorperazine; format: functional
[5] = test system: Burkholderia pseudomallei; assay: Antimicrobial activity against Burkholderia pseudomallei KHW in presence of 3.9 uM prochlorperazine; format: functional
[6] = test system: Burkholderia pseudomallei; assay: Antimicrobial activity against Burkholderia pseudomallei KHW in presence of 1000 uM promazine; format: functional
[7] = test system: Burkholderia pseudomallei; assay: Antimicrobial activity against Burkholderia pseudomallei KHW in presence of 125 uM promazine; format: functional
[8] = test system: Burkholderia pseudomallei; assay: Antimicrobial activity against Burkholderia pseudomallei KHW in presence of 62.5 uM promazine; format: functional
[9] = test system: Burkholderia pseudomallei; assay: Antimicrobial activity against Burkholderia pseudomallei KHW in presence of 31.3 uM promazine; format: functional
[10] = test system: Burkholderia pseudomallei; assay: Antimicrobial activity against Burkholderia pseudomallei KHW in presence of 15.6 uM promazine; format: functional
[11] = test system: Burkholderia pseudomallei; assay: Antimicrobial activity against Burkholderia pseudomallei KHW in presence of 7.8 uM promazine; format: functional
[12] = test system: Burkholderia pseudomallei; assay: Antimicrobial activity against Burkholderia pseudomallei KHW in presence of 3.9 uM promazine; format: functional
[13] = test system: Burkholderia pseudomallei; assay: Antimicrobial activity against Burkholderia pseudomallei KHW in presence of 1000 uM omeprazole; format: functional
[14] = test system: Burkholderia pseudomallei; assay: Antimicrobial activity against Burkholderia pseudomallei KHW in presence of 125 uM omeprazole; format: functional
[15] = test system: Burkholderia pseudomallei; assay: Antimicrobial activity against Burkholderia pseudomallei KHW in presence of 62.5 uM omeprazole; format: functional
[16] = test system: Burkholderia pseudomallei; assay: Antimicrobial activity against Burkholderia pseudomallei KHW in presence of 31.3 uM omeprazole; format: functional
[17] = test system: Burkholderia pseudomallei; assay: Antimicrobial activity against Burkholderia pseudomallei KHW in presence of 7.8 uM omeprazole; format: functional
[18] = test system: Burkholderia pseudomallei; assay: Antimicrobial activity against Burkholderia pseudomallei KHW in presence of 3.9 uM omeprazole; format: functional
[19] = test system: Burkholderia pseudomallei; assay: Antimicrobial activity against Burkholderia pseudomallei KHW in presence of 1000 uM chlorpromazine; format: functional
[20] = test system: Burkholderia pseudomallei; assay: Antimicrobial activity against Burkholderia pseudomallei KHW; format: functional
[21] = test system: Burkholderia pseudomallei; assay: Antimicrobial activity against Burkholderia pseudomallei KHW in presence of 1000 uM prochlorperazine; format: functional
[22] = test system: Burkholderia pseudomallei; assay: Antimicrobial activity against Burkholderia pseudomallei KHW in presence of 500 uM prochlorperazine; format: functional
[23] = test system: Burkholderia pseudomallei; assay: Antimicrobial activity against Burkholderia pseudomallei KHW in presence of 250 uM prochlorperazine; format: functional
[24] = test system: Burkholderia pseudomallei; assay: Antimicrobial activity against Burkholderia pseudomallei KHW in presence of 125 uM prochlorperazine; format: functional
[25] = test system: Burkholderia pseudomallei; assay: Antimicrobial activity against Burkholderia pseudomallei KHW in presence of 62.5 uM prochlorperazine; format: functional
[26] = test system: Burkholderia pseudomallei; assay: Antimicrobial activity against Burkholderia pseudomallei KHW in presence of 500 uM chlorpromazine; format: functional
[27] = test system: Burkholderia pseudomallei; assay: Antimicrobial activity against Burkholderia pseudomallei KHW in presence of 250 uM chlorpromazine; format: functional
[28] = test system: Burkholderia pseudomallei; assay: Antimicrobial activity against Burkholderia pseudomallei KHW in presence of 125 uM chlorpromazine; format: functional
[29] = test system: Burkholderia pseudomallei; assay: Antimicrobial activity against Burkholderia pseudomallei KHW in presence of 62.5 uM chlorpromazine; format: functional
[30] = test system: Burkholderia pseudomallei; assay: Antimicrobial activity against Burkholderia pseudomallei KHW in presence of 31.3 uM chlorpromazine; format: functional
[31] = test system: Burkholderia pseudomallei; assay: Antimicrobial activity against Burkholderia pseudomallei KHW in presence of 15.6 uM chlorpromazine; format: functional
[32] = test system: Burkholderia pseudomallei; assay: Antimicrobial activity against Burkholderia pseudomallei KHW in presence of 7.8 uM chlorpromazine; format: functional
[33] = test system: Burkholderia pseudomallei; assay: Antimicrobial activity against Burkholderia pseudomallei KHW in presence of 3.9 uM chlorpromazine; format: functional
[34] = test system: Burkholderia pseudomallei; assay: Antimicrobial activity against Burkholderia pseudomallei KHW in presence of 250 uM promazine; format: functional
[35] = test system: Burkholderia pseudomallei; assay: Antimicrobial activity against Burkholderia pseudomallei KHW in presence of 500 uM omeprazole; format: functional
[36] = test system: Burkholderia pseudomallei; assay: Antimicrobial activity against Burkholderia pseudomallei KHW in presence of 250 uM omeprazole; format: functional
[37] = test system: Burkholderia pseudomallei; assay: Attenuation of A549 cell invasion by Burkholderia pseudomallei KHW at 8 ug/ml in presence of 250 uM prochlorperazine; format: functional, organism-based
[38] = test system: Burkholderia pseudomallei; assay: Attenuation of THP1 cell invasion by Burkholderia pseudomallei KHW at 8 ug/ml in presence of 250 uM prochlorperazine; format: functional, organism-based; details: THP-1
[39] = test system: Burkholderia pseudomallei; assay: Attenuation of A549 cell invasion by Burkholderia pseudomallei KHW at 8 ug/ml in presence of 500 uM chlorpromazine; format: functional, organism-based
[40] = test system: Burkholderia pseudomallei; assay: Attenuation of THP1 cell invasion by Burkholderia pseudomallei KHW at 8 ug/ml in presence of 500 uM chlorpromazine; format: functional, organism-based; details: THP-1
[41] = test system: Burkholderia pseudomallei; assay: Attenuation of A549 cell invasion by Burkholderia pseudomallei KHW at 128 ug/ml; format: functional, organism-based
[42] = test system: Burkholderia pseudomallei; assay: Attenuation of THP1 cell invasion by Burkholderia pseudomallei KHW at 128 ug/ml; format: functional, organism-based; details: THP-1
[43] = test system: Burkholderia pseudomallei; assay: Attenuation of A549 cell invasion by Burkholderia pseudomallei KHW at 8 ug/ml; format: functional, organism-based
[44] = test system: Burkholderia pseudomallei; assay: Attenuation of THP1 cell invasion by Burkholderia pseudomallei KHW at 8 ug/ml; format: functional, organism-based; details: THP-1
[45] = test system: Burkholderia pseudomallei; assay: Attenuation of Burkholderia pseudomallei KHW cytotoxicity in A549 cells at 8 ug/ml in presence of 250 uM prochlorperazine; format: functional, organism-based
[46] = test system: Burkholderia pseudomallei; assay: Attenuation of Burkholderia pseudomallei KHW cytotoxicity in THP1 cells at 8 ug/ml in presence of 250 uM prochlorperazine; format: functional, organism-based; details: THP-1
[47] = test system: Burkholderia pseudomallei; assay: Attenuation of Burkholderia pseudomallei KHW cytotoxicity in A549 cells at 8 ug/ml in presence of 500 uM chlorpromazine; format: functional, organism-based
[48] = test system: Burkholderia pseudomallei; assay: Attenuation of Burkholderia pseudomallei KHW cytotoxicity in THP1 cells at 8 ug/ml in presence of 500 uM chlorpromazine; format: functional, organism-based; details: THP-1
[49] = test system: Burkholderia pseudomallei; assay: Attenuation of Burkholderia pseudomallei KHW cytotoxicity in A549 cells at 128 ug/ml; format: functional, organism-based
[50] = test system: Burkholderia pseudomallei; assay: Attenuation of Burkholderia pseudomallei KHW cytotoxicity in THP1 cells at 128 ug/ml; format: functional, organism-based; details: THP-1

Compound: CN[C@@H]1[C@H](O)[C@H](NC)[C@H]2O[C@@]3(O)C(=O)C[C@@H](C)O[C@H]3O[C@@H]2[C@H]1O [SPECTINOMYCIN]
- MIC [1]: 256 µg/mL
- MIC [2]: 256 µg/mL
- MIC [3]: 256 µg/mL
- MIC [4]: 256 µg/mL
- MIC [5]: 256 µg/mL
- MIC [6]: < 0.25 µg/mL
- MIC [7]: 256 µg/mL
- MIC [8]: 256 µg/mL
- MIC [9]: 256 µg/mL
- MIC [10]: 256 µg/mL
- MIC [11]: 256 µg/mL
- MIC [12]: 256 µg/mL
- MIC [13]: 32 µg/mL
- MIC [14]: 256 µg/mL
- MIC [15]: 256 µg/mL
- MIC [16]: 256 µg/mL
- MIC [17]: 256 µg/mL
- MIC [18]: 256 µg/mL
- MIC [19]: < 0.25 µg/mL
- MIC [20]: 256 µg/mL (≈ 770 µM)
- MIC [21]: < 0.25 µg/mL
- MIC [22]: < 0.25 µg/mL
- MIC [23]: 32 µg/mL
- MIC [24]: 32 µg/mL
- MIC [25]: 128 µg/mL
- MIC [26]: 32 µg/mL
- MIC [27]: 128 µg/mL
- MIC [28]: 256 µg/mL
- MIC [29]: 256 µg/mL
- MIC [30]: 256 µg/mL
- MIC [31]: 256 µg/mL
- MIC [32]: 256 µg/mL
- MIC [33]: 256 µg/mL

Compound: CC[C@H]1OC(=O)[C@H](C)[C@@H](O[C@H]2C[C@@](C)(OC)[C@@H](O)[C@H](C)O2)[C@H](C)[C@@H](O[C@@H]2O[C@H](C)C[C@H](N(C)C)[C@H]2O)[C@](C)(O)C[C@@H](C)C(=O)[C@H](C)[C@@H](O)[C@]1(C)O [ERYTHROMYCIN]
- MIC [1]: 128 µg/mL
- MIC [2]: 64 µg/mL
- MIC [3]: 64 µg/mL
- MIC [4]: 128 µg/mL
- MIC [5]: 128 µg/mL
- MIC [6]: < 0.25 µg/mL
- MIC [34]: 64 µg/mL
- MIC [7]: 128 µg/mL
- MIC [8]: 128 µg/mL
- MIC [9]: 128 µg/mL
- MIC [10]: 128 µg/mL
- MIC [11]: 128 µg/mL
- MIC [12]: 128 µg/mL
- MIC [13]: < 0.25 µg/mL
- MIC [35]: 128 µg/mL
- MIC [36]: 128 µg/mL
- MIC [14]: 128 µg/mL
- MIC [15]: 128 µg/mL
- MIC [16]: 128 µg/mL
- MIC [17]: 128 µg/mL
- MIC [18]: 128 µg/mL
- Activity [37]: Active
- Activity [38]: Active
- Activity [39]: Active
- Activity [40]: Active
- Activity [41]: Active
- Activity [42]: Active
- MIC [19]: < 0.25 µg/mL
- MIC [20]: 128 µg/mL (≈ 174 µM)
- MIC [21]: 8 µg/mL
- MIC [22]: 8 µg/mL
- MIC [23]: 8 µg/mL
- MIC [26]: 8 µg/mL
- MIC [28]: 128 µg/mL
- MIC [29]: 128 µg/mL
- MIC [30]: 128 µg/mL
- MIC [31]: 128 µg/mL
- MIC [32]: 128 µg/mL
- MIC [33]: 128 µg/mL
- Activity [43]: inactive
- Activity [44]: inactive
- Activity [45]: Active
- Activity [46]: Active
- Activity [47]: Active
- Activity [48]: Active
- Activity [49]: Active
- Activity [50]: Active
